Results taken from the supplement of paper PMC3974653.
Where a name gives a salt, the structure may show the parent alone.

System: MTT (mouse pheochromocytoma)
Experiment: IC50 of cell viability (ATP content)
Settings: (24 or 48 h)
How it was run: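 MTT mouse pheochromocytoma cells in white 1536-well plates were treated for 24 or 48 hrs with library compounds at 8 final concentrations from 0.5 nM to 46 µM. ATP content was measured with CellTiter-Glo luminescence, using positive-control wells as 100% and DMSO wells as 0%. IC50 came from a four-parameter logistic fit.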

SMILES | IC50 of cell viability
C[S+](=O)([O-])OCCC[NH2+]CCCO[S+](C)(=O)[O-] [Improsulfan tosylate] | > 46 µM
c1ccc2c(CCC3CC[NH2+]CC3)c[nH]c2c1 [Indalpine] | > 46 µM
CN[C@@H]1C[C@@H](c2ccc(Cl)c(Cl)c2)c2ccccc21.Cl [Indatraline hydrochloride] | > 46 µM
O=C1/C(=C2\Nc3ccc(S(=O)(=O)O)cc3C2=O)Nc2ccc(S(=O)(=O)O)cc21 [Indigo carmine] | > 46 µM
O=C1/C(=C2\Nc3ccc([S+](=O)([O-])O)cc3C2=O)Nc2ccc([S+](=O)([O-])O)cc21 [Indigo carmine] | > 46 µM
O=C1/C(=C2/Nc3ccc(S(=O)(=O)[O-])cc3C2=O)Nc2ccc(S(=O)(=O)[O-])cc21 [Indigo carmine] | > 46 µM
[Cl][In]([Cl])[Cl] [Indium trichloride] | > 46 µM
Cc1c(C)n(Cc2ccccc2)c2ccc(C(=O)OCCN(C)C)cc12 [Indocate] | > 46 µM
OCc1c[nH]c2ccccc12 [Indole-3-carbinol] | > 46 µM
COc1ccc2c(c1)c(CC(=O)O)c(C)n2C(=O)c1ccc(Cl)cc1 [Indometacin] | > 46 µM
COC(=O)C(CN)c1c[nH]c2ccc(OC)cc12 (stereo not given) [Indorenate hydrochloride] | > 46 µM
CC(=O)N(C[C@@H](C)C(=O)O)c1c(I)cc(I)c(N)c1I [Iocetamic acid] | > 46 µM
O=C(CCCCC(=O)Nc1c(I)cc(I)c(C(=O)O)c1I)Nc1c(I)cc(I)c(C(=O)O)c1I [Iodipamide] | > 46 µM
CC(=O)N(CC(O)CN(C(C)=O)c1c(I)c(C(=O)NC[C@@H](O)CO)c(I)c(C(=O)NC[C@@H](O)CO)c1I)c1c(I)c(C(=O)NC[C@@H](O)CO)c(I)c(C(=O)NC[C@@H](O)CO)c1I [Iodixanol] | > 46 µM
Oc1c(I)cc(Cl)c2cccnc12 [Iodochlorohydroxyquinoline] | > 46 µM
IC(I)I [Iodoform] | > 46 µM
CC(C)NC(C)Cc1ccc(I)cc1.Cl (stereo not given) [Iofetamine hydrochloride] | > 46 µM
CC(=O)N(CC(O)CO)c1c(I)c(C(=O)NCC(O)CO)c(I)c(C(=O)NCC(O)CO)c1I (stereo not given) [Iohexol] | > 46 µM
CN(C(=O)CO)c1c(I)c(C(=O)NCC(O)CO)c(I)c(C(=O)NCC(O)CO)c1I (stereo not given) [Iomeprol] | > 46 µM
C[C@H](O)C(=O)Nc1c(I)c(C(=O)NC(CO)CO)c(I)c(C(=O)NC(CO)CO)c1I [Iopamidol] | > 46 µM
COCC(=O)Nc1c(I)c(C(=O)NC[C@@H](O)CO)c(I)c(C(=O)N(C)C[C@@H](O)CO)c1I [Iopromide] | > 46 µM
O=C(NC[C@@H](O)CO)c1c(I)c(C(=O)NC[C@@H](O)CO)c(I)c(N(CCO)C(=O)CO)c1I [Ioversol] | > 46 µM
CNC(=O)c1c(I)c(C(=O)NCC(=O)Nc2c(I)c(C(=O)O)c(I)c(C(=O)NCCO)c2I)c(I)c(N(C)C(C)=O)c1I [Ioxaglic acid] | > 46 µM
CC(=O)N(CC(O)CO)c1c(I)c(C(=O)NCCO)c(I)c(C(=O)NCC(O)CO)c1I (stereo not given) [Ioxilan] | > 46 µM
CC(C)[N+]1(C)[C@@H]2CC[C@H]1CC(OC(=O)C(CO)c1ccccc1)C2 (stereo not given in full) [Ipratropium bromide monohydrate] | > 46 µM
CC(C)Oc1ccc2c(=O)c(-c3ccccc3)coc2c1 [Ipriflavone] | > 46 µM
O=C1c2ccccc2[S+](=O)([O-])N1CCCCN1CCN(c2ncccn2)CC1 [Ipsapirone] | > 46 µM
O=C(O)CCCC/C=C(\c1ccccc1)c1cccnc1 [Isbogrel] | > 46 µM
CNC1C(O)C(OC2C(NC(=O)C(O)CN)CC(N)C(OC3OC(CN)C(O)C(O)C3O)C2O)OCC1(C)O (stereo not given) [Isepamicin] | > 46 µM
CC(C)CCON=O [Isoamyl nitrite] | > 46 µM
